Results as given in the supplement of paper PMC11919725.

Legend:
Jurkat [1] = test: metabolic activity relative to DMSO, 18 h (ratio); higher = more viable
Outline: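 Jurkat cells and primary CD4+/CD8+ T cells, naive or activated for 48 h on CD3/CD28 Dynabeads, were incubated for 18 h with compound at 1 nM–10 µM. Fluorescence was read 3.5 h after alamarBlue addition (10% v/v final) at excitation 544 nm and emission 584 nm. Metabolic activity is normalised to the mean of vehicle controls.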

Jurkat [2] = test: confluency relative to DMSO, 18 h (ratio); higher = more viable
Outline: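 Compound was applied at 1 nM–10 µM (log10 steps) for 18 h at 37 °C, 5% CO2 to Jurkat cells or to primary CD4+/CD8+ T cells that were naive or had been activated 48 h with CD3/CD28 Dynabeads. Suspension (100 µl) was then plated in 96-well plates with IncuCyte Cytotox Dye and alamarBlue and imaged hourly over 3 h (×10, five images per well). Confluency was calculated from the IncuCyte phase-contrast images using the Basic Analyzer and normalised to the mean of the control wells.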

Jurkat [3] = test: cytotoxicity relative to DMSO, 18 h (ratio); higher = less cell death (drugs called cytotoxic fall below 1)
Outline: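 Cytotoxicity was measured by IncuCyte fluorescence imaging after confluency correction and normalisation to mean control values. Cells (Jurkat, or primary CD4+/CD8+ T cells that were naive or pre-activated 48 h with CD3/CD28 Dynabeads) received compound at 1 nM–10 µM in log10 steps for 18 h at 37 °C, 5% CO2. Imaging used ×10 magnification, five images per well, taken hourly over 3 h in 96-well plates with 250 nM final IncuCyte Cytotox Dye in 100 µl of suspension.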

| SMILES | metabolic activity (Jurkat [1]; 1 nM) | metabolic activity (Jurkat [1]; 10 nM) | metabolic activity (Jurkat [1]; 100 nM) | metabolic activity (Jurkat [1]; 1000 nM) | metabolic activity (Jurkat [1]; 10000 nM) | confluency (Jurkat [2]; 1 nM) | confluency (Jurkat [2]; 10 nM) | confluency (Jurkat [2]; 100 nM) | confluency (Jurkat [2]; 1000 nM) | confluency (Jurkat [2]; 10000 nM) | cytotoxicity (Jurkat [3]; 1 nM) | cytotoxicity (Jurkat [3]; 10 nM) | cytotoxicity (Jurkat [3]; 100 nM) | cytotoxicity (Jurkat [3]; 1000 nM) | cytotoxicity (Jurkat [3]; 10000 nM) |
| --- | --- | --- | --- | --- | --- | --- | --- | --- | --- | --- | --- | --- | --- | --- | --- |
| COc1ccc(C2=NC(c3ccc(Cl)cc3)C(c3ccc(Cl)cc3)N2C(=O)N2CCNC(=O)C2)c(OC(C)C)c1 (stereo not given) [Nutlin-3] | 0.983 | 1.01 | 1.02 | 0.991 | 0.84 | 0.971 | 0.92 | 1.01 | 0.98 | 0.963 | 0.993 | 0.951 | 0.962 | 0.985 | 0.917 |
| O=C(c1cc(Cc2n[nH]c(=O)c3ccccc23)ccc1F)N1CCN(C(=O)C2CC2)CC1 [Olaparib] | 1.08 | 1.09 | 0.911 | 0.899 | 1 | 0.954 | 1.02 | 0.974 | 0.975 | 0.969 | 0.942 | 1.03 | 1 | 1.01 | 0.977 |
| COc1ncc(-c2ccc3nccc(-c4ccnnc4)c3c2)cc1NS(=O)(=O)c1ccc(F)cc1F [Omipalisib] | 1.1 | 0.966 | 0.621 | 0.524 | 0.563 | 0.98 | 0.797 | 0.785 | 0.904 | 1.12 | 1.04 | 0.823 | 0.728 | 0.735 | 0.923 |
| Nc1nc2cc(CCC3CC(n4ccc5c(N)ncnc54)C(O)C3O)ccc2cc1Br (stereo not given) [Onametostat] | 1.01 | 0.982 | 1.07 | 0.979 | 0.975 | 0.916 | 0.951 | 0.973 | 0.978 | 0.985 | 0.949 | 0.883 | 0.975 | 0.884 | 0.982 |
| COC1CCC(N2C(=O)CNc3ncc(-c4ccc(C(C)(C)O)nc4)nc32)CC1 (stereo not given) [Onatasertib] | 0.857 | 0.964 | 0.935 | 0.881 | 0.73 | 1.12 | 1.05 | 1.07 | 0.9 | 0.675 | 1.12 | 1.07 | 1.11 | 0.859 | 0.586 |
| O=C(O)C(=O)O.[NH-]C1CCCCC1[NH-].[Pt+2] (stereo not given) [Oxaliplatin] | 0.909 | 0.865 | 0.936 | 0.884 | 0.991 | 0.84 | 0.755 | 1.01 | 0.989 | 0.969 | 0.835 | 0.765 | 1.05 | 1.04 | 1.1 |
| CN(C)CC(=O)Nc1ccc2[nH]c(=O)c3ccccc3c2c1 [PJ34] | 0.99 | 1.03 | 1.04 | 0.955 | 1.12 | 0.971 | 0.933 | 0.94 | 0.99 | 0.968 | 0.966 | 0.947 | 0.963 | 0.932 | 1.17 |
| CC(=O)OC1C(=O)C2(C)C(O)CC3OCC3(OC(C)=O)C2C(OC(=O)c2ccccc2)C2(O)CC(OC(=O)C(O)C(NC(=O)c3ccccc3)c3ccccc3)C(C)=C1C2(C)C (stereo not given) [Paclitaxel] | 1.05 | 0.568 | 0.576 | 0.534 | 0.744 | 1 | 0.989 | 0.964 | 0.939 | 0.81 | 1.16 | 0.953 | 0.883 | 0.854 | 0.797 |
| CC(=O)c1c(C)c2cnc(Nc3ccc(N4CCNCC4)cn3)nc2n(C2CCCC2)c1=O [Palbociclib] | 0.877 | 0.988 | 0.96 | 0.995 | 0.88 | 0.829 | 0.902 | 0.974 | 1.04 | 0.813 | 0.851 | 0.93 | 0.95 | 1.03 | 0.793 |
| Nc1nc2[nH]cc(CCc3ccc(C(=O)NC(CCC(=O)O)C(=O)O)cc3)c2c(=O)[nH]1 (stereo not given) [Pemetrexed] | 1.02 | 1.11 | 1.06 | 1.09 | 0.853 | 1 | 0.962 | 0.845 | 0.839 | 0.835 | 0.992 | 0.997 | 0.837 | 0.821 | 0.75 |
| CC(=O)N1CCC(Nc2cc(C(=O)NCC(O)CN3CCc4ccccc4C3)ncn2)CC1 (stereo not given) [Pemrametostat] | 0.952 | 0.904 | 0.931 | 0.95 | 1.2 | 1.05 | 1.06 | 1.01 | 1.03 | 0.947 | 1.07 | 1.09 | 1.06 | 1.05 | 1.05 |
| COc1ccc(Cl)c(Nc2nc3ccccc3nc2NS(=O)(=O)c2cccc(NC(=O)C(C)(C)N)c2)c1 [Pilaralisib] | 1.02 | 1.03 | 1.03 | 0.939 | 0.877 | 0.978 | 1.01 | 1.01 | 0.994 | 0.976 | 1.06 | 1.11 | 1.1 | 0.959 | 0.942 |
| CC(C)N(CC1OC(n2cnc3c(N)ncnc32)C(O)C1O)C1CC(CCc2nc3ccc(C(C)(C)C)cc3[nH]2)C1 (stereo not given) [Pinometostat] | 0.998 | 1.05 | 1.12 | 0.858 | 0.958 | 0.929 | 0.934 | 1.11 | 1.02 | 0.941 | 0.982 | 1.06 | 1.25 | 1.01 | 1 |
| Nc1cccc2c1C(=O)N(C1CCC(=O)NC1=O)C2=O (stereo not given) [Pomalidomide] | 0.995 | 1.01 | 1.04 | 1.12 | 1.09 | 0.955 | 0.902 | 0.943 | 0.948 | 0.94 | 1.04 | 0.986 | 0.512 | 1.03 | 0.936 |
| CC12C=CC(=O)C=C1CCC1C2C(=O)CC2(C)C1CCC2(O)C(=O)CO (stereo not given) [Prednisone] | 0.872 | 0.991 | 1.07 | 1.04 | 1.15 | 1.01 | 0.981 | 0.993 | 1.01 | 1.02 | 0.964 | 1.01 | 1.02 | 1.05 | 1.21 |
| Cn1cc(CNCC2CCN(c3ncc(C(=O)NO)cn3)CC2)c2ccccc21 [Quisinostat] | 0.876 | 1.04 | 0.875 | 0.688 | 0.667 | 0.847 | 0.918 | 0.963 | 1.02 | 0.957 | 0.816 | 1.07 | 0.897 | 0.958 | 0.908 |
| COc1ccc(F)c(F)c1C(=O)c1cnc(NC2CCN(S(C)(=O)=O)CC2)nc1N [R-547] | 1.09 | 1.02 | 1 | 0.739 | 0.134 | 1.07 | 1.18 | 1.04 | 1.04 | 1.01 | 1.01 | 0.934 | 1.08 | 1.04 | 1.04 |
| COC1CC2CCC(C)C(O)(O2)C(=O)C(=O)N2CCCCC2C(=O)OC(C(C)CC2CCC(O)C(OC)C2)CC(=O)C(C)C=C(C)C(O)C(OC)C(=O)C(C)CC(C)C=CC=CC=C1C (stereo not given) [Rapamycin] | 0.859 | 0.948 | 0.789 | 0.77 | 0.742 | 1.01 | 0.98 | 0.933 | 0.902 | 0.81 | 0.973 | 1.02 | 1.05 | 0.913 | 0.831 |
| Cn1nccc1Nc1nccc(-c2ccn(C(CO)c3ccc(Cl)c(F)c3)c(=O)c2)n1 (stereo not given) [Ravoxertinib] | 0.977 | 0.997 | 1.04 | 1.07 | 1.1 | 0.989 | 0.841 | 0.884 | 0.894 | 0.886 | 1.1 | 0.921 | 1 | 0.983 | 1.02 |
| CN(C)C(=O)c1cc2cnc(Nc3ccc(N4CCNCC4)cn3)nc2n1C1CCCC1 [Ribociclib] | 0.887 | 0.874 | 0.862 | 0.879 | 0.856 | 1 | 0.964 | 1.09 | 1.06 | 1.14 | 0.914 | 0.883 | 1.01 | 0.984 | 1.06 |
| O=C(CCCCCCNC(=O)c1cnc(N(c2ccccc2)c2ccccc2)nc1)NO [Ricolinostat] | 0.874 | 0.881 | 0.933 | 0.841 | 0.655 | 1.01 | 1 | 1.03 | 0.976 | 0.984 | 1.01 | 0.933 | 1.07 | 0.969 | 0.881 |
| COc1cc(OC)c(C=CS(=O)(=O)Cc2ccc(OC)c(NCC(=O)O)c2)c(OC)c1 [Rigosertib] | 1.01 | 1.01 | 0.87 | 0.426 | 0.468 | 1.02 | 1.01 | 1.01 | 0.871 | 0.797 | 0.92 | 0.988 | 0.948 | 0.711 | 0.621 |
| CN1CCC(c2c(O)cc(O)c3c(=O)cc(-c4ccccc4Cl)oc23)C1CO (stereo not given) [Riviciclib] | 1.04 | 0.872 | 0.754 | 0.6 | 0.242 | 1.07 | 1.04 | 0.985 | 0.866 | 1.03 | 0.627 | 0.605 | 1 | 0.783 | 1.04 |
| CC=C1NC(=O)C2CSSCCC=CC(CC(=O)NC(C(C)C)C(=O)N2)OC(=O)C(C(C)C)NC1=O (stereo not given) [Romidepsin] | 1.1 | 0.839 | 0.703 | 0.539 | 0.042 | 0.987 | 1.07 | 1.02 | 1 | 1.03 | 0.904 | 0.961 | 0.914 | 1.03 | 1.06 |
| CNCc1ccc(-c2[nH]c3cc(F)cc4c3c2CCNC4=O)cc1 [Rucaparib] | 0.926 | 0.952 | 0.981 | 0.996 | 0.973 | 1.06 | 1.03 | 1.04 | 1.07 | 0.931 | 1.06 | 1 | 1.04 | 1.07 | 0.899 |
| CC(C)(C)c1cnc(CSc2cnc(NC(=O)C3CCNCC3)s2)o1 [SNS-032] | 0.778 | 0.953 | 0.979 | 0.192 | 0.167 | 1.13 | 1.09 | 1.08 | 1.13 | 1.17 | 1.06 | 1.06 | 1.06 | 0.66 | 0.657 |
| O=C(Nc1cccc(Cl)c1)Nc1ncc(CCNc2ncnc3ccsc23)s1 [SNS-314] | 0.955 | 0.945 | 0.979 | 0.909 | 0.797 | 0.951 | 0.963 | 0.974 | 0.907 | 0.78 | 0.951 | 0.912 | 0.92 | 0.832 | 0.733 |
| Cc1nc(-c2cccnc2)sc1C(=O)Nc1ccccc1-c1cn2c(CN3CCOCC3)csc2n1 [SRT2104] | 1.03 | 1.01 | 1.03 | 1.03 | 0.982 | 1.06 | 1.02 | 1.05 | 1.04 | 0.971 | 1.13 | 1.06 | 1.13 | 1.11 | 1.05 |
| CCC(CO)Nc1nc(NCc2ccccc2)c2ncn(C(C)C)c2n1 (stereo not given) [Seliciclib] | 0.994 | 0.987 | 0.945 | 0.962 | 1.03 | 1.03 | 0.968 | 0.924 | 0.977 | 0.943 | 1.02 | 0.922 | 0.883 | 0.948 | 0.957 |
